In article PMC6649662, “A molecular basis of human T cell receptor autoreactivity toward self-phospholipids” (Science immunology, 2017):

Columns and labels:
CD1b (CD1b-β2m) [1] = target: T1, CD1b (CD1b-β2m) (Homo sapiens, UniProt P29016); test: X-ray crystal structure; conditions: antigen-binding cleft, with scaffold lipids; weak density for head group
T1 construct: soluble, transmembrane-truncated CD1b with β2m; from HEK 293S GnTI- or Trichoplusia ni High Five cells; lipid-loaded and purified; with Beta-2-microglobulin

CD1b (CD1b-β2m) [2] = target: T1, CD1b (CD1b-β2m); test: lipid loading, isoelectric focusing shift and anion exchange purification; format: binding; conditions: loaded in vitro

SMILES | X-ray crystal structure (CD1b (CD1b-β2m) [1]) | lipid loading, isoelectric focusing shift and anion exchange purification (CD1b (CD1b-β2m) [2])
CCCCCCCC/C=C\CCCCCCCC(=O)O[C@H](COC(=O)CCCCCCCCCCCCCCC)COP(=O)(O)O [PA, phosphatidic acid] | structures of the PG90 TCR and the CD1b-PS and CD1b- PA complexes | 
CCCCCCCC/C=C\CCCCCCCC(=O)O[C@H](COC(=O)CCCCCCCCCCCCCCC)COP(=O)(O)OCCN [PE, phosphatidylethanolamine] |  | phospholipids are loaded into CD1b at high occupancy and purified to homogeneity
CCCCCCCC/C=C\CCCCCCCC(=O)O[C@H](COC(=O)CCCCCCCCCCCCCCC)COP(=O)(O)O[C@@H]1[C@H](O)[C@H](O)[C@@H](O)[C@H](O)[C@H]1O [PI, phosphatidylinositol] |  | phospholipids are loaded into CD1b at high occupancy and purified to homogeneity
CCCCCCCC/C=C\CCCCCCCC(=O)O[C@H](COC(=O)CCCCCCCCCCCCCCC)COP(=O)(O)OC[C@H](N)C(=O)O [PS, phosphatidylserine] | structures of the PG90 TCR and the CD1b-PS and CD1b- PA complexes | 
